Assay results taken from paper PMC8217170, “Phase Ib dose-escalation study of the hypoxia-modifier Myo-inositol trispyrophosphate in patients with hepatopancreatobiliary tumors” (Nature Communications, 2021).
Several values for one entry are separate records, joined by “and”; a condition that tells them apart may be missing. Equal values may be shown once.

How the values were obtained:
[1] = test system: target lesions of PDAC, CRLM, CCA and HCC; experiment: Metabolic radiological response, FDG-PET-CT, EORTC criteria; type: in vivo, human; set-up: key to EORTC response after chemotherapy / EORTC response after ITPP / RespITPP_EORTC / RespChemo_EORTC: CMR = complete metabolic response; PMR = partial metabolic response; SMD = stable metabolic disease; PMD = progressive metabolic disease; Lesion1_pre_TLG / Lesion1_post_TLG / Lesion1_chemo_TLG / Lesion2_pre_TLG / Lesion2_post_TLG / Lesion2_chemo_TLG / Lesion3_pre_TLG / Lesion3_post_TLG / Lesion3_chemo_TLG / Lesion4_pre_TLG / Lesion4_post_TLG / Lesion4_chemo_TLG / Lesion5_pre_TLG / Lesion5_post_TLG / Lesion5_chemo_TLG: unit not given here; details: for RespITPP_EORTC / RespChemo_EORTC: EORTC
Procedure: Radiological assessment, consisting of abdominal MRI and FDG-PET-CT, was performed before ITPP administration and after the 3-week treatment course. Where possible, radiological re-evaluation was performed after 3–6 cycles of chemotherapy. Radiological responses were evaluated according to the RECIST 1.1 criteria[56] for MRI and EORTC criteria[57] for FDG-PET-CT imaging.
Then first calculate the sum of diameters (DM) and SUV-activities of radiological target lesions before ITPP (sum_pre), after ITPP (sum_post) and after subsequent chemotherapy (sum_chemo) for assessment of morphological RECIST1.1 (diameter) and metabolical EORTC (SUV activiy) responses.
Patient 1 (dropout after only 2 infusions and subsequent death due to rapid oncological progression) is excluded for radiological assessment due to no follow up imaging available.
In a second step, we calculate percent changes (PC) of diameter and SUV activity between before ITPP, after ITPP and after chemotherapy.

CEA, AFP, CA19-9 = experiment: Circulatory tumor-specific markers before vs after ITPP; type: in vivo, human; details: for Tumor marker AFP / Tumor marker CEA: individual patients
Text: Load the raw data of the tumor marker measurements, calculate fold changes (FC) and percentage changes comparing measurments per patient before and after ITPP treatment.

PECAM1/CD31 = experiment: Serum angiogenesis marker, multiplex bead-based immunoassay (LEGENDplex); type: in vivo, human; details: for PECAM_1: serum, duplicate wells
Procedure: (§1) Serum angiogenesis markers were quantified by multiplex bead-based immunoassays following provided instructions (LEGENDplex™, Biolegend, San Diego, CA/USA). For biochemical markers, the percentage change comparing before (day 1 0 h) with after (last day 9 h) ITPP treatment was calculated.

[2] = test system: VEGFA, ANG1/2, EGF, PECAM1/CD31; experiment: Serum angiogenic markers overall, before vs after ITPP; type: in vivo, human
Procedure: as §1

[3] = test system: human colon carcinomatosis; set-up: method as in ref 12 (supplementary references); details: xenogeneic mouse model of human colon carcinomatosis; ref 12 (supplementary references); cited from earlier work
[4] = set-up: method as in unpublished data obtained from NormOxys; details: minipigs, once weekly; ref unpublished data obtained from NormOxys; cited from earlier work
[5] = individual patients, lesion 3, pre ITPP (baseline)
[6] = individual patients, lesion 4, after subsequent chemotherapy
[7] = individual patients, lesion 4, post ITPP
[8] = individual patients, lesion 4, pre ITPP (baseline)
[9] = individual patients, lesion 5, after subsequent chemotherapy
[10] = individual patients, lesion 5, post ITPP
[11] = individual patients, lesion 5, pre ITPP (baseline)
[12] = of 22 patients with elevated markers, under ITPP

O=P1(O)OC2C3OP(=O)(O)OP(=O)(O)OC3C3OP(=O)(O)OP(=O)(O)OC3C2OP(=O)(O)O1 (stereo not drawn) [ITPP, Myo-inositol trispyrophosphate]
Lesion3_pre_SUV [1, 5]: 12.41 and 13.89 and 10.1 and 2.3 and 3.6 and 5.8 and 13.7 and 2.6 and 10.84 and 19.9 and 10.9 and 2.7 and 7.35 | Lesion3_pre_TLG [1, 5]: 261.7 and 28.6 and 21.7 and 1 and 13.5 and 3.4 and 72.1 and 179.3 and 22.6 and 0.1 and 3.9 | Lesion4_chemo_SUV [1, 6]: 2.5 and 3.2 and 4.7 and 3.72 | Lesion4_chemo_TLG [1, 6]: 1.3 and 2.7 and 0 and 46.4 | Lesion4_post_SUV [1, 7]: 3.5 and 16.1 and 6.1 and 1.6 and 14.37 | Lesion4_post_TLG [1, 7]: 1.3 and 42.9 and 0 and 161.9 | Lesion4_pre_SUV [1, 8]: 7.6 and 11.5 and 4.2 and 8.83 and 3.9 and 13.22 | Lesion4_pre_TLG [1, 8]: 17.4 and 33.9 and 16.4 and 1.1 and 84.7 | Lesion5_chemo_SUV [1, 9]: 2 and 9.1 and 1.4 and 0 | Lesion5_chemo_TLG [1, 9]: 3.4 and 0 | Lesion5_post_SUV [1, 10]: 6.8 and 10.7 and 1.35 and 6.92 | Lesion5_post_TLG [1, 10]: 18.9 and 0 and 11.9 | Lesion5_pre_SUV [1, 11]: 7.3 and 11.5 and 6.85 and 3.5 and 3.76 | Lesion5_pre_TLG [1, 11]: 7.3 and 4.3 and 0.6 and 2.7 | RespITPP_EORTC ([1]; individual patients, metabolic response after ITPP monotherapy): SMD and PMR and PMD | RespChemo_EORTC ([1]; individual patients, metabolic response after subsequent chemotherapy following ITPP): SMD and PMD and PMR | RespITPP_EORTC ([1]; metabolic response after ITPP, per individual patient, cohort c1, tumor c2): SMD and PMR and PMD | RespChemo_EORTC ([1]; metabolic response after chemotherapy following ITPP, per individual patient, cohort c1, tumor c2): SMD and PMD and PMR | Patients with tumor markers not elevated (CEA, AFP, CA19-9; CEA, AFP, CA19-9): 5/27 | Tumor marker AFP (CEA, AFP, CA19-9; Day 1 pre (baseline before ITPP)): 1572 µg/L and 11.2 µg/L and 270600 µg/L | Tumor marker CEA (CEA, AFP, CA19-9; Day 1 pre (baseline before ITPP), ITPP cohort 2): 2.8 µg/L | Tumor marker CEA (CEA, AFP, CA19-9; Day 1 pre (baseline before ITPP), ITPP cohort 3): 169.8 µg/L | Tumor marker CEA (CEA, AFP, CA19-9; Day 1 pre (baseline before ITPP), ITPP cohort 6): 3.2 µg/L and 1 µg/L and 291.6 µg/L | Tumor marker CEA (CEA, AFP, CA19-9; Day 1 pre (baseline before ITPP), ITPP cohort 7): 2205 µg/L and 2068 µg/L | Tumor marker CEA (CEA, AFP, CA19-9; Day 1 pre (baseline before ITPP), ITPP cohort 8): 7058 µg/L | Tumor marker AFP (CEA, AFP, CA19-9; Day 3 post): 1167 µg/L and 11.2 µg/L | Tumor marker CEA (CEA, AFP, CA19-9; Day 3 post, ITPP cohort 2): 2.9 µg/L | Tumor marker CEA (CEA, AFP, CA19-9; Day 3 post, ITPP cohort 3): 165.1 µg/L | Tumor marker CEA (CEA, AFP, CA19-9; Day 3 post, ITPP cohort 6): 3.2 µg/L and 2.3 µg/L and 300.1 µg/L | Tumor marker CEA (CEA, AFP, CA19-9; Day 3 post, ITPP cohort 7): 2190 µg/L and 2209 µg/L | Tumor marker CEA (CEA, AFP, CA19-9; Day 3 post, ITPP cohort 8): 7145 µg/L | Tumor marker AFP (CEA, AFP, CA19-9; Day 9 post): 1017 µg/L and 5.1 µg/L and 204800 µg/L | Tumor marker CEA (CEA, AFP, CA19-9; Day 9 post, ITPP cohort 2): 2.9 µg/L | Tumor marker CEA (CEA, AFP, CA19-9; Day 9 post, ITPP cohort 3): 247.8 µg/L | Tumor marker CEA (CEA, AFP, CA19-9; Day 9 post, ITPP cohort 6): 4.6 µg/L and 1 µg/L and 451 µg/L | Tumor marker CEA (CEA, AFP, CA19-9; Day 9 post, ITPP cohort 7): 2055 µg/L and 3058 µg/L | Tumor marker CEA (CEA, AFP, CA19-9; Day 9 post, ITPP cohort 8): 7626 µg/L | Patients with a decrease in tumor marker levels (CEA, AFP, CA19-9; [12]): 11 | Patients with an increase in tumor marker levels (CEA, AFP, CA19-9; [12]): 11 | Share of patients with reduced PECAM1 (PECAM1/CD31; following ITPP treatment, 27 patients): 66.7% | PECAM_1 (PECAM1/CD31; Patient 25, Cohort 8, PDAC, Day 3 post): 261.09 | PECAM_1 (PECAM1/CD31; Patient 25, Cohort 8, PDAC, Day 9 post): 287.51 and 289.5 | PECAM_1 (PECAM1/CD31; Patient 26, Cohort 8, PDAC, Day 3 post): 298.56 and 289.5 | PECAM_1 (PECAM1/CD31; Patient 26, Cohort 8, PDAC, Day 9 post): 215.26 and 221.83 | PECAM_1 (PECAM1/CD31; Patient 27, Cohort 8, CCC, Day 3 post): 350.64 and 331.88 | PECAM_1 (PECAM1/CD31; Patient 27, Cohort 8, CCC, Day 9 post): 286.17 and 303.44 | PECAM_1 (PECAM1/CD31; Patient 28, Cohort 8, CRLM, Day 3 post): 299.11 and 271.68 | PECAM_1 (PECAM1/CD31; Patient 28, Cohort 8, CRLM, Day 9 post): 262.91 and 211.07 | Share of patients with decreases in angiogenic markers [2]: ~60% | Decrease of tumor growth compared with capecitabine [3]: more efficient than capecitabine | Human equivalent dose-corrected NOAEL [4]: 43,750 mg/m2
